The text below walks through data of EP4104902B1, “COMPOUNDS AND M[…] SAME” (priority 2020, dated 2021).

pIC50: −log10 of the molar value.

The first assay relates to recombinant rabies virus 1088 strain expressing Gaussia Luciferase (GLuc) (1088/GLuc). It is filed as cell-based. Conditions: read-out: Anti-rabies activity.
As for `NC(=O)C[C@@H]1[C@@H]2[C@@H]3CN[C@@]1(C(=O)NCCc1ccccc1)C[C@@H]3CN2CC1CCCCC1` (relative stereo) [IF-251], the pIC50 is 4.52 to 5.00.
Same read-out and setting: under `CC(C)CC1C2CNC3(C(=O)NCc4cccc5ccccc45)C(C2)CN(CCC(=O)O)C13` (stereo not shown) [IB-392] stands 4.52 to 5.00.
On the same count and under the same terms, to `CC(C)CCNC(=O)[C@]12NC[C@@H]3C[C@H]1CN(Cc1ccc(O)cc1)[C@H]2[C@@H]3Cc1ccccc1` (relative stereo) [IB-574] belongs 4.52 to 5.00.
On the same count and under the same terms, under `CCCCCCNC(=O)C12NCC3CC1CN(CC(N)=O)C2C3CCC(C)C` (stereo not shown) [IB-108] stands 4.52 to 5.00; under `O=C(NCc1ccc(O)cc1)[C@@]12C[C@@H]3CN(Cc4ccccc4)[C@@H]([C@@H]3CN1)[C@H]2CCc1ccccc1` (relative stereo) [IF-565], greater than 5.30.
For the compound `CC(C)CCNC(=O)C12NCC3CC1CN(CCO)C2C3Cc1cccc2ccccc12` (stereo not shown) [IB-727], the pIC50 was greater than 5.30.
Still for that read-out and setting: to `CC(C)CC[C@@H]1[C@@H]2CN[C@@]3(C(=O)NCCC(=O)O)[C@@H](C2)CN(CC2CCCCC2)[C@@H]13` (relative stereo) [IB-613] belongs 4.52 to 5.00.
On the same count and under the same terms, to `O=C(NCCO)[C@]12NC[C@@H]3C[C@H]1CN(Cc1ccccc1)[C@H]2[C@@H]3Cc1ccccc1` (relative stereo) [IB-676] belongs 4.52 to 5.00; to `O=C(NCc1ccc(F)cc1)C12NCC3CC1CN(CCO)C2C3CCc1ccccc1` (stereo not shown) [IB-492], greater than 5.30; to `CN1CC2CC3C=NC2(C(=O)NCCc2cccc4cccnc24)C1C3Cc1ccccc1` (stereo not shown) [IIB-329], greater than 5.30.
Same read-out and setting: to `O=C(NCc1ccc(F)cc1)[C@]12NC[C@@H]3C[C@H]1CN(Cc1ccccc1)[C@H]2[C@@H]3CCc1ccccc1` (relative stereo) [IB-568] belongs 4.52 to 5.00; to `O=C(NCc1ccc(O)cc1)[C@@]12C[C@@H]3CN(Cc4cccc5ccccc45)[C@@H]([C@@H]3CN1)[C@H]2Cc1ccccc1` (relative stereo) [IF-472], greater than 5.30.
In the case of `CC(C)CC[C@@H]1[C@@H]2[C@@H]3CN[C@@]1(C(=O)NCC(C)C)C[C@@H]3CN2Cc1ccccc1` (relative stereo) [IF-411], the pIC50 was greater than 5.30.
Still for that read-out and setting: under `CC(C)CNC(=O)C12NCC3CC1CN(Cc1ccc(O)cc1)C2C3CCCNC(=N)N` (stereo not shown) [IB-203] stands 4.52 to 5.00; under `O=C(NCCO)[C@@]12C[C@@H]3CN(CC4CCCCC4)[C@@H]([C@@H]3CN1)[C@H]2Cc1ccccc1` (relative stereo) [IF-486], 4.52 to 5.00; under `CC(C)CNC(=O)[C@]12NC[C@@H]3C[C@H]1CN(CC(C)C)[C@H]2[C@@H]3Cc1ccccc1` (relative stereo) [IB-3], 4.52 to 5.00.
Still for that read-out and setting: under `CC(C)CC[C@@H]1[C@@H]2CN[C@@]3(C(=O)NCCCNC(=N)N)[C@@H](C2)CN(CCc2ccccc2)[C@@H]13` (relative stereo) [IB-346] stands 4.52 to 5.00.
Same read-out and setting: to `CC(C)CNC(=O)[C@]12NC[C@@H]3C[C@H]1CN(CC(C)C)[C@H]2[C@@H]3CCCNC(=N)N` (relative stereo) [IB-187] belongs 4.52 to 5.00.
As to `CC(C)CCN1CC2CC3CNC2(C(=O)NCc2ccccc2)C1C3CC(C)C` (stereo not shown) [IB-876], the pIC50 is 4.52 to 5.00.
Same read-out and setting: under `CC(C)CCN1C[C@H]2C[C@]3(C(=O)NCc4ccc(F)cc4)NC[C@H]2[C@H]1[C@H]3Cc1ccccc1` (relative stereo) [IF-547] stands greater than 5.30; under `CC(C)CC1C2CNC3(C(=O)NCCc4ccccc4)C(C2)CN(Cc2ccc(F)cc2)C13` (stereo not shown) [IB-725], greater than 5.30; under `CC(C)CCC1C2C3CNC1(C(=O)NCc1ccc(O)cc1)CC3CN2CCC(=O)O` (stereo not shown) [IF-458], 4.52 to 5.00.
Same read-out and setting: under `CC(C)C[C@@H]1[C@@H]2[C@@H]3CN[C@@]1(C(=O)NCc1ccc(O)cc1)C[C@@H]3CN2Cc1cccc2ccccc12` (relative stereo) [IF-473] stands greater than 5.30.
The same measure, in the same setting: under `CC(C)CC[C@@H]1[C@@H]2[C@@H]3CN[C@@]1(C(=O)NC(C)C)C[C@@H]3CN2Cc1ccc(O)cc1` (relative stereo) [IF-503] stands greater than 5.30; under `CC(C)CCNC(=O)C12NCC3CC1CN(CCO)C2C3Cc1ccccc1` (stereo not shown) [IB-714], greater than 5.30.
On to `CC(C)CC[C@@H]1[C@@H]2[C@@H]3CN[C@@]1(C(=O)NCCO)C[C@@H]3CN2Cc1cccc2ccccc12` (relative stereo) [IF-613], for which the pIC50 was 4.52 to 5.00.
The same measure, in the same setting: under `CC(C)C[C@@H]1[C@@H]2[C@@H]3CN[C@@]1(C(=O)NCc1ccc(C(F)(F)F)cc1)C[C@@H]3CN2Cc1ccccc1` (relative stereo) [IF-838] stands 4.52 to 5.00; under `NC(=O)CCNC(=O)C12CC3CN(Cc4cccc5ccccc45)C(C3CN1)C2Cc1ccc(O)cc1` (stereo not shown) [IF-435], greater than 5.30.
On to `CC(C)CNC(=O)[C@@]12C[C@@H]3CN(Cc4cccc5ccccc45)[C@@H]([C@@H]3CN1)[C@H]2CC(C)C` (relative stereo) [IF-739], for which the pIC50 is greater than 5.30.
Same read-out and setting: to `CC(C)CCN1CC2CC3CNC2(C(=O)NCc2ccccc2)C1C3Cc1ccc(O)cc1` (stereo not shown) [IB-749] belongs 4.52 to 5.00.
With `CC(C)CC[C@@H]1[C@@H]2CN[C@@]3(C(=O)NCCCNC(=N)N)[C@@H](C2)CN(CC2CCCCC2)[C@@H]13` (relative stereo) [IB-361], the pIC50 is 4.52 to 5.00.
The same measure, in the same setting: to `O=C(NCc1ccc(F)cc1)[C@@]12C[C@@H]3CN(Cc4ccccc4)[C@@H]([C@@H]3CN1)[C@H]2Cc1ccccc1` (relative stereo) [IF-561] belongs greater than 5.30.
The same measure, in the same setting: under `O=C(O)CCN1CC2CC3CNC2(C(=O)NCc2ccc(O)cc2)C1C3Cc1cccc2ccccc12` (stereo not shown) [IB-516] stands 4.52 to 5.00; under `CC(C)CCN1C[C@@H]2C[C@H]3CN[C@]2(C(=O)NCCC(=O)O)[C@@H]1[C@@H]3Cc1cccc2ccccc12` (relative stereo) [IB-381], 4.52 to 5.00; under `O=C(NCc1ccccc1)[C@]12NC[C@@H]3C[C@H]1CN(Cc1ccc(F)cc1)[C@H]2[C@@H]3Cc1ccccc1` (relative stereo) [IB-772], greater than 5.30.
Same read-out and setting: to `CC(C)CCNC(=O)[C@@]12C[C@@H]3CN(CCO)[C@@H]([C@@H]3CN1)[C@H]2Cc1ccccc1` (relative stereo) [IF-656] belongs 4.52 to 5.00; to `NC(=O)CN1CC2CC3CNC2(C(=O)NCCc2ccccc2)C1C3Cc1ccccc1` (stereo not shown) [IB-87], greater than 5.30.
As for `CC(C)CN1CC2CC3CNC2(C(=O)NCCC(N)=O)C1C3Cc1cccc2ccccc12` (stereo not shown) [IB-737], the pIC50 was 4.52 to 5.00.
Same read-out and setting: to `Cc1cccc(CNC(=O)[C@@]23C[C@@H]4CN(CC(C)C)[C@@H]([C@@H]4CN2)[C@H]3Cc2ccccc2)c1` (relative stereo) [IF-15] belongs 4.52 to 5.00; to `CCN1CC2CC3CN(Cc4ccc(C)cc4)C(C2CC(C)C)C31C(=O)NCc1ccccc1` (stereo not shown) [IB-880], greater than 5.30; to `Cc1cccc(C[C@@H]2[C@@H]3CN[C@@]4(C(=O)NCc5ccccc5)[C@@H](C3)CN(CC(C)C)[C@@H]24)c1` (relative stereo) [IB-13], 4.52 to 5.00.
Same read-out and setting: to `O=C(NCc1ccccc1)[C@@]12C[C@@H]3CN(Cc4cccc5ccccc45)[C@@H]([C@@H]3CN1)[C@H]2Cc1ccccc1` (relative stereo) [IF-42] belongs 4.52 to 5.00; to `CCCCCCNC(=O)[C@@]12C[C@@H]3CN(CC(C)C)[C@@H]([C@@H]3CN1)[C@H]2CC(C)C` (relative stereo) [IF-569], 4.52 to 5.00.

The assay is the same for the next values; noted with them: read-out: IC50.
On to `CC(C)CNC(=O)[C@]12NC[C@@H]3C[C@H]1CN(CC(C)C)[C@H]2[C@@H]3Cc1ccccc1` (relative stereo) [IB-3], for which the pIC50 was 4.71.
Still for that read-out and setting: to `Cc1cccc(CNC(=O)[C@@]23C[C@@H]4CN(CC(C)C)[C@@H]([C@@H]4CN2)[C@H]3Cc2ccccc2)c1` (relative stereo) [IF-15] belongs 4.77.
On the same count and under the same terms, to `Cc1cccc(C[C@@H]2[C@@H]3CN[C@@]4(C(=O)NCc5ccccc5)[C@@H](C3)CN(CC(C)C)[C@@H]24)c1` (relative stereo) [IB-13] belongs 4.84.
